The structures appear in SMILES notation.

The conditions of series [1]: rat, in vivo.
Protocol: Rats were obtained commercially and were pre-cannulated in the jugular vein. Animals were conscious at the time of the experiment. All animals were fasted overnight and until 4 hours post-dosing of a prodrug of Formula (I).
Rat blood samples (0.3 mL/sample) were collected from all animals prior to dosing and at different time-points up to 24 h post-dose into tubes containing EDTA. Two aliquots (100 μL each) were quenched with 300 μL methanol and stored at −20° C. prior to analysis.
To prepare analysis standards, 90 μL of rat blood was quenched with 300 μL methanol followed by 10 μL of spiking standard and/or 20 μL of internal standard. The sample tubes were vortexed for at least 2 min and then centrifuged at 3400 rpm for 20 min. […]
LC-MS-MS analysis was performed using an API 4000 equipped with Agilent 1100 HPLC and a Leap Technologies autosampler. […] Acamprosate was monitored in negative ion mode. […] Prodrug was monitored in positive ion mode. […]
The percent relative bioavailability (F %) of acamprosate was determined by comparing the area under the acamprosate concentration vs time curve (AUC) following oral or colonic administration of an acamprosate prodrug or acamprosate with the AUC of the acamprosate concentration vs time curve following intravenous administration of acamprosate on a dose normalized basis.
For the next series, the system named is cocaine conditioned mice. The note with it: 100 mg/kg acamprosate for 3 days; cited from earlier work.
The conditions of series [2]: post-dose; doses about 1-2 gm per day; cited from earlier work.

As for `CC(=O)NCCCS(=O)(=O)OCC(C)(C)[C@@H](O)C(=O)OC(C)OC(=O)OC(C)C` (stereo partly drawn) [Compound 40, (Methylethoxycarbonyloxy)ethyl (2R)-4-{[3-(acetylamino)propyl]sulfonyloxy}-2-hydroxy-3,3-dimethylbutanoate], in series [1], the “acamprosate colonic bioavailability relative to the acamprosate colonic bioavailability of an equivalent dose of acamprosate itself” value was “at least 5 times” and the “acamprosate oral bioavailability relative to the acamprosate oral bioavailability of an equivalent dose of acamprosate itself” value is “at least 5 times”.

Turning to `CC(=O)NCCCS(=O)(=O)O` [acamprosate, 3-(Acetylamino)propylsulfonic acid], the relapse-like behavior entry in the series with cocaine conditioned mice is “attenuated relapse-like behavior”. For the same compound, the “time at which steady-state plasma concentration occurs” value in series [2] was 3 to 8 h.

The values above are taken from patent US8168617B2, “Complex pantoic acid ester neopentyl sulfonyl ester cyclization release prodrugs of acamprosate, compositions thereof, and methods of use” (XenoPort, Inc., priority 2007, dated 2012).
